21 compounds from patent US5378803A, “Azole-fused peptides and processes for preparation thereof” (Sterling Winthrop Inc., priority 1992, dated 1995) can be followed below.

Structures are written as SMILES. Residues, ends and D or L forms follow the SMILES beside them. Where only a bound is given, the exact number is not on record here.

The target of this experiment is T1, Substance P (Cavia porcellus, UniProt P30547).
T1 construct: Strips of longitudinal muscle (derived from terminal ileum of adult male guinea pigs); from tissue; host or cells: longitudinal muscle strips of terminal ileum, adult male guinea pigs (Charles River)
T1 sequence (P30547 whole entry): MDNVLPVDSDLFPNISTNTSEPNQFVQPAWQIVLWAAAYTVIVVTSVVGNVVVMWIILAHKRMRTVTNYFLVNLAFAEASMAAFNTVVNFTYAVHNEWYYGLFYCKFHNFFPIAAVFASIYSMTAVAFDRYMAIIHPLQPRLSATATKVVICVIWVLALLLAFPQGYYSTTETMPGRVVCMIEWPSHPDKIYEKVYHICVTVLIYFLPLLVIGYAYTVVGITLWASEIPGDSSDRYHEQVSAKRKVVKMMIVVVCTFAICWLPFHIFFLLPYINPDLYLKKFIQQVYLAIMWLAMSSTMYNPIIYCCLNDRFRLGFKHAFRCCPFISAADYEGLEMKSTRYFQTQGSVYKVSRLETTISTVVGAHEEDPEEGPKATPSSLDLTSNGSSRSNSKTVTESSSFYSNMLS
The experiment can be described thus: Guinea pig ileum test for Substance P antagonist effect. In kind it is cell-based. As to conditions: isolated guinea pig ileum longitudinal muscle strips; Schild plot analysis; 5-10 min contact time; footnote a = limited data due to solubility, b = slope significantly different from -1; read-out: Substance P Antagonist pA2 (converted). As for the experimental part: As stated above the azole-fused peptides of Formula I are useful as Substance P antagonists and analgesics or as synthetic intermediates therefor.
Strips of longitudinal muscle (derived from terminal ileum of adult male guinea pigs (Charles River, 400-600 g.) are mounted in 5-ml. organ baths containing oxygenated Krebs solution containing l μM each of atropine and pyrilamine maintained at 30°-33° C. and connected to isometric transducers. Following tissue equilibration and repeated washing (45-60 min.), SP or an appropriate reference agonist is added cumulatively to the bath and contractions of the tissue are recorded. The bath is washed thoroughly and 30-45 min. is allowed to elapse before construction of a second reference agonist curve to assure reproducibility of the responses. Test compounds are similarly evaluated for agonist activity up to a maximum concentration of 10-100 μM. Regression analysis of the linear portion of the log concentration-percent maximal response curves provides the EC50 (and 95% confidence limits), the standard measure of agonist potency. When appropriate, relative molar potency ratios are calculated (EC50 reference/ED50 test drug). Antagonist activity is examined by pretreating thoroughly washed tissues with test compound (using a standard 5-10 min. contact time), then constructing a cumulative dose-response curve to the reference agonist. The effects of several concentrations of test antagonist, pooled across separate experiments, provide dose-ratio (EC50 shift) data for a standard Schild plot analysis, with computation of the pA2.
For `CC(C)C[C@H](NC(=O)[C@@H](Cc1c[nH]c2ccccc12)NC(=O)c1nc(C2Cc3c([nH]c4ccccc34)CN2)sc1-c1ccccc1)C(=O)N[C@@H](Cc1ccccc1)C(N)=O` (single isomer, unassigned) [Example 7], the Kb was greater than 10000 nM.
On to `CC(C)C[C@H](NC(=O)[C@@H](Cc1c[nH]c2ccccc12)NC(=O)c1nc(C2Cc3c([nH]c4ccccc34)CN2)sc1-c1ccccc1)C(=O)N[C@@H](Cc1ccccc1)C(N)=O` (single isomer, unassigned) [Example 8], for which the Kb is 7940 nM.
With `CN(C)CCNC(=O)[C@@H](Cc1c[nH]c2ccccc12)NC(=O)c1nc(C(Cc2c[nH]c3ccccc23)NC(=O)[C@@H]2CCCN2)sc1-c1ccccc1` (single isomer, unassigned) [Example 11], the Kb was 7940 nM.
Turning to `CN(C)CCNC(=O)[C@@H](Cc1c[nH]c2ccccc12)NC(=O)c1nc(C(Cc2c[nH]c3ccccc23)NC(=O)[C@@H]2CCCN2)sc1-c1ccccc1` (single isomer, unassigned) [Example 12], the Kb is 5010 nM.
Regarding `CC(C)C[C@H](NC(=O)[C@@H](Cc1c[nH]c2ccccc12)NC(=O)c1nc([C@H](Cc2c[nH]c3ccccc23)NC(=O)[C@@H]2CCCN2)sc1-c1ccccc1)C(=O)N[C@@H](Cc1ccccc1)C(N)=O` [Example 2], the Kb is 126 nM.
For the compound `CC(C)C[C@H](NC(=O)[C@@H](Cc1c[nH]c2ccccc12)NC(=O)c1nc([C@@H](Cc2c[nH]c3ccccc23)NC(=O)[C@@H]2CCCN2)sc1-c1ccccc1)C(=O)N[C@@H](Cc1ccccc1)C(N)=O` [Example 3], the Kb is 50.1 nM.
`CC(C)c1sc([C@@H](Cc2c[nH]c3ccccc23)NC(=O)[C@H](Cc2ccccc2)NC(=O)[C@@H](Cc2c[nH]c3ccccc23)NC(=O)[C@@H]2CCCN2)nc1C(=O)N[C@@H](Cc1ccccc1)C(N)=O` [Example 4] (HELM PEPTIDE1{P.[dW].F.[CC(C)c1sc([C@@H](Cc2c[nH]c3ccccc23)N[*:1])nc1C(=O)[*:2]].F.[am]}$$$$V2.0): the Kb was 501 nM.
In the case of `CC(C)c1sc([C@H](Cc2c[nH]c3ccccc23)NC(=O)[C@H](Cc2ccccc2)NC(=O)[C@@H](Cc2c[nH]c3ccccc23)NC(=O)[C@@H]2CCCN2)nc1C(=O)N[C@@H](Cc1ccccc1)C(N)=O` [Example 5] (HELM PEPTIDE1{P.[dW].F.[CC(C)c1sc([C@H](Cc2c[nH]c3ccccc23)N[*:1])nc1C(=O)[*:2]].F.[am]}$$$$V2.0) it was 126 nM; in that of `CC(C)C[C@H](NC(=O)c1nc([C@H](Cc2ccccc2)NC(=O)[C@@H](Cc2c[nH]c3ccccc23)NC(=O)[C@@H]2CCCN2)sc1-c1c[nH]c2ccccc12)C(=O)N[C@@H](Cc1ccccc1)C(N)=O` [Example 6], 1260 nM; in that of `CC(C)C[C@H](NC(=O)c1nc([C@H](Cc2ccccc2)NC(=O)[C@@H](Cc2c[nH]c3ccccc23)NC(=O)[C@@H]2CCCN2)oc1-c1c[nH]c2ccccc12)C(=O)N[C@@H](Cc1ccccc1)C(N)=O` [Example 9], 5010 nM.
As to `CC(C)C[C@H](NC(=O)c1nc([C@H](Cc2ccccc2)NC(=O)[C@@H](Cc2c[nH]c3ccccc23)NC(=O)[C@@H]2CCCN2)[nH]c1-c1c[nH]c2ccccc12)C(=O)N[C@@H](Cc1ccccc1)C(N)=O` [Example 10], the Kb was 1260 nM.
On to `CC(C)C[C@H](NC(=O)[C@@H](Cc1c[nH]c2ccccc12)NC(=O)c1nc([C@@H](Cc2c[nH]c3ccccc23)NC(=O)[C@@H]2CCCN2)[nH]c1-c1ccccc1)C(=O)N[C@@H](Cc1ccccc1)C(N)=O` [Example 16], for which the Kb is 200 nM.
For `CC(C)C[C@H](NC(=O)[C@@H](Cc1c[nH]c2ccccc12)NC(=O)[C@H](Cc1ccccc1)NC(=O)[C@@H](Cc1c[nH]c2ccccc12)NC(=O)[C@@H]1CCCN1)c1ncc(-c2ccccc2)[nH]1` [Example 17] (HELM PEPTIDE1{P.[dW].F.[dW].[CC(C)C[C@H](N[*:1])c1ncc(-c2ccccc2)[nH]1]}$$$$V2.0), the Kb is 501 nM.
Turning to `CC(C)C[C@H](NC(=O)[C@@H](Cc1c[nH]c2ccccc12)NC(=O)c1nc([C@@H](Cc2c[nH]c3ccccc23)NC(=O)[C@@H]2CCCN2)sc1-c1ccccc1)C(=O)N[C@@H](Cc1ccccc1)C(=O)O` [Example 18], the Kb is 316 nM.
Take `CC(C)C[C@H](NC(=O)[C@@H](Cc1c[nH]c2ccccc12)NC(=O)c1nc([C@@H](Cc2c[nH]c3ccccc23)NC(=O)[C@@H]2CCCN2)sc1-c1ccccc1)C(=O)O` [Example 19]: the Kb is greater than 10000 nM.
On to `CC(C)C[C@H](NC(=O)[C@@H](Cc1c[nH]c2ccccc12)NC(=O)c1nc([C@H](N)Cc2c[nH]c3ccccc23)sc1-c1ccccc1)C(=O)O` [Example 20], for which the Kb is greater than 10000 nM.
Take `CC(C)c1sc([C@@H](Cc2c[nH]c3ccccc23)NC(=O)c2nc([C@@H](Cc3c[nH]c4ccccc34)NC(=O)[C@@H]3CCCN3)sc2-c2ccccc2)nc1C(=O)NC[C@@H](N)Cc1ccccc1` [Example 21]: the Kb was greater than 10000 nM.
For `CC(C)C[C@H](NC(=O)[C@@H](Cc1c[nH]c2ccccc12)NC(=O)c1nc([C@@H](Cc2c[nH]c3ccccc23)NC(=O)[C@@H]2CCCN2)sc1-c1ccccc1)C(=O)N(C)C(Cc1ccccc1)C(N)=O` (stereo partly drawn) [Example 22], the Kb was 79.4 nM.
As to `CC(C)C[C@H](NC(=O)[C@@H](Cc1c[nH]c2ccccc12)NC(=O)c1nc([C@@H](Cc2c[nH]c3ccccc23)NC(=O)[C@@H]2CCCN2)oc1-c1ccccc1)C(=O)N[C@@H](Cc1ccccc1)C(N)=O` [Example 24], the Kb is 631 nM.
In the case of `CC(C)c1sc([C@@H](Cc2c[nH]c3ccccc23)NC(=O)[C@H](Cc2ccccc2)NC(=O)[C@@H](Cc2c[nH]c3ccccc23)NC(=O)[C@@H]2CCCN2)nc1C(=O)NC[C@@H](N)Cc1ccccc1` [Example 25], the Kb is 794 nM.
As to `CC(C)c1sc([C@@H](Cc2c[nH]c3ccccc23)NC(=O)[C@H](Cc2ccccc2)NC(=O)[C@@H](Cc2c[nH]c3ccccc23)NC(=O)[C@@H]2CCCN2)nc1CN(C)CCc1ccccc1` [Example 27], the Kb was no less than 10000 nM.
